In patent US20240254129A1, “HETEROCYCLIC COMPOUNDS AND USES THEREOF” (Kumquat Biosciences Inc., priority 2021, published 2024):

What was measured:
wildtype Kras / hSOS1 = target: T1, wildtype Kras / hSOS1 (Homo sapiens, UniProt P01116); assay: HTRF assay, wildtype Kras / SOS1 interaction; assay type: binding; conditions: compound nos. 401-703; read-out: IC50 against wildtype Kras
T1 construct: made in house; host or cells: E. coli BL21 (DE3)
Outline: (§1)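 Inhibition of wildtype or mutant K-Ras binding to hSOS1 is measured by FRET between antibody-bound Eu donor and XL665 acceptor. Protein levels are matched to the IC50 range under study. The 665/620 nm signal after ≥10 min yields IC50.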

[1] = target: GST-tagged K-Ras mutant / His-tagged hSOS1 (Homo sapiens, UniProt P01116); assay: HTRF assay, K-Ras mutant / SOS1 interaction; assay type: binding; conditions: compound nos. 401-703; read-out: IC50 against mutant Kras
GST-tagged K-Ras mutant / His-tagged hSOS1, sequence (P01116 whole entry G12D, form open): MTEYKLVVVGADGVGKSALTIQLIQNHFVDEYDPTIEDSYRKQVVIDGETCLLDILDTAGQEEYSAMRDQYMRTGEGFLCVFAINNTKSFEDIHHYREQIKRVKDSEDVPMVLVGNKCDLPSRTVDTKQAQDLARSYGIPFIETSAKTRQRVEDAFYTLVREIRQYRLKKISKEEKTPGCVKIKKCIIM
Outline: as §1

T1 sequence (P01116 1-188 isoform P01116-2): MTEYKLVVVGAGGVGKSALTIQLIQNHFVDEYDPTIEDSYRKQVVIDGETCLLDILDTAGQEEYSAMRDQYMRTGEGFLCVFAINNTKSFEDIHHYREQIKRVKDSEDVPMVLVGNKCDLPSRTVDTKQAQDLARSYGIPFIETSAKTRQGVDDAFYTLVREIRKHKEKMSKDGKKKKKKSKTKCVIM

SMILES	IC50 (wildtype Kras / hSOS1) [nM]	IC50 [1] [nM]
CN1CCC[C@H]1COc1nc(N2CCC(F)C(F)CC2)c2cc(Cl)c(-c3cccc4sc(N)nc34)c(F)c2n1 (stereo partly drawn) [Compound 642, 4-(6-chloro-4-(4,5-difluoro-azepan-1-yl)-8-fluoro-2-(((S)-1-methylpyrrolidin-2-yl)methoxy)quinazolin-7-yl)-benzo[d]thiazol-2-amine]	> 500	< 500
N#Cc1c(N)sc2c(F)ccc(-c3c(Cl)cc4c(N5C[C@H]6CC[C@@H](C5)N6CC5COC5)nc(OC[C@@]56CCCN5C[C@H](F)C6)nc4c3F)c12 [Compound 643, 2-amino-4-(6-chloro-8-fluoro-2-(((2R,7aS)-2-fluorotetrahydro-1H-pyrrolizin-7a(5H)-yl)-methoxy)-4-((1R,5S)-8-(oxetan-3-yl-methyl)-3,8-diazabicyclo[3.2.1]-octan-3-yl)quinazolin-7-yl)-7-fluorobenzo[b]-thiophene-3-carbonitrile]	> 500	< 500
CS(=O)(=O)N1CCCN(c2nc(OC[C@@]34CCCN3C[C@H](F)C4)nc3c(F)c(-c4ccc(F)c5sc(N)nc45)c(Cl)cc23)CC1 [Compound 644, 4-(6-chloro-8-fluoro-2-(((2R,7aS)-2-fluorotetra-hydro-1H-pyrrolizin-7a(5H)-yl)methoxy)-4-(4-(methylsulfonyl)-1,4-diazepan-1-yl)quinazolin-7-yl)-7-fluorobenzo[d]thia-zol-2-amine]	> 500	< 500
Cc1nc(N2CCCCCC2)c2cc(Cl)c(-c3cccc4sc(N)nc34)cc2n1 [Compound 645, 4-(4-(azepan-1-yl)-6-chloro-2-methylquinazolin-7-yl)-benzo[d]thiazol-2-amine]	> 500	> 500
CCCC1CCCN(c2nc(OC[C@@H]3CCCN3C)nc3c(F)c(-c4cccc5sc(N)nc45)c(Cl)cc23)CC1 (stereo partly drawn) [Compound 646, 4-(6-chloro-8-fluoro-2-(((S)-1-methylpyrrolidin-2-yl)-methoxy)-4-(4-propylaze-pan-1-yl)quinazolin-7-yl)-benzo[d]thiazol-2-amine]	> 500	> 500
CN(CCC1CCC[N+]1(C)C)c1nc(N2CC3CCC(C2)N3)c2ccc(-c3ccc(F)c4sc(N)nc34)nc2n1 (stereo not shown) [Compound 647, 4-(4-(3,8-diazabicyclo-[3.2.1]octan-3-yl)-2-((2-(1,1-dimethyl-114-pyrrol-idin-2-yl)ethyl)(methyl)-amino)pyrido[2,3-d]pyr-imidin-7-yl)-7-fluoroben-zo[d]thiazol-2-amine]	> 500	> 500
Cc1cc(N)nc(-c2ccc3c(N4CC5CCC(C4)N5)nc(OC[C@@]45CCCN4C[C@H](F)C5)nc3c2F)c1C1CC1 [Compound 648, 6-(4-(3,8-diazabicyclo-[3.2.1]octan-3-yl)-8-fluoro-2-(((2R,7aS)-2-fluorotetra-hydro-1H-pyrrolizin-7a(5H)-yl)methoxy)quinazolin-7-yl)-5-cyclopropyl-4-methyl-pyridin-2-amine]	> 500	> 500

Further lines, results first:

IC50 (wildtype Kras / hSOS1) [nM]	IC50 [1] [nM]	SMILES
> 500	< 500	Cc1ccc2[nH]nc(C#N)c2c1-c1c(Cl)cc2c(N3CC4CCC(C3)N4)nc(OC[C@@]34CCCN3C[C@H](F)C4)nc2c1F [Compound 632, 4-(4-(3,8-diazabicyclo-[3.2.1]octan-3-yl)-6-chloro-8-fluoro-2-(((2R,7aS)-2-fluorotetrahydro-1H-pyrrol-izin-7a(5H)-yl)methoxy)-quin-azolin-7-yl)-5-methyl-1H-indazole-3-carbonitrile]
> 500	< 500	Nc1nc2c(-c3c(Cl)cc4c(N5CCNCC(F)(F)C5)nc(OCC56CCCN5CCC6)nc4c3F)c(F)ccc2s1 [Compound 633, 4-(6-chloro-4-(6,6-difluoro-1,4-diazepan-1-yl)-8-fluoro-2-((tetrahydro-1H-pyrrol-izin-7a(5H)-yl)methoxy)-quinazolin-7-yl)-5-fluoro-benzo[d]thiazol-2-amine]
> 500	> 500	Nc1nc2c(-c3ccc4c(N5CC6CCC(C5)N6)nc(OC[C@@]56CCCN5C[C@H](F)C6)nc4c3F)cccc2o1 [Compound 634, 4-(4-(3,8-diazabicyclo-[3.2.1]octan-3-yl)-8-fluoro-2-(((2R,7aS)-2-fluorotetra-hydro-1H-pyrrolizin-7a(5H)-yl)methoxy)quinazolin-7-yl)benzo[d]oxazol-2-amine]
> 500	> 500	Nc1nc2c(-c3cc4ncnc(N5CC6CCC(C5)N6)c4cc3Cl)ccc(F)c2s1 [Compound 635, 4-(4-(3,8-diazabicyclo-[3.2.1]octan-3-yl)-6-chloro-quinazolin-7-yl)-7-fluoro-benzo[d]thiazol-2-amine]
> 500	> 500	Nc1cc(-c2c(Cl)cc3c(N4CC5CCC(C4)N5)nc(OCC45CCCN4CCC5)nc3c2F)c2ccccc2n1 [Compound 636, 4-(4-(3,8-diazabicyclo-[3.2.1]octan-3-yl)-6-chloro-8-fluoro-2-((tetrahydro-1H-pyrrolizin-7a(5H)-yl)meth-oxy)quinazolin-7-yl)quin-olin-2-amine]
> 500	> 500	Fc1c(-c2cccc3c2CCCS3)c(Cl)cc2c(N3CC4CCC(C3)N4)nc(OC[C@@]34CCCN3C[C@H](F)C4)nc12 [Compound 637, 4-(3,8-diazabicyclo[3.2.1]-octan-3-yl)-6-chloro-8-fluoro-2-(((2R,7aS)-2-fluoro-tetrahydro-1H-pyrrolizin-7a(5H)-yl)methoxy)-7-(thio-chroman-5-yl)quinazoline]
> 500	< 500	N#Cc1c(N)sc2c(F)ccc(-c3c(Cl)cc4c(N5CC6CCC(C5)N6)nc(OC[C@@]56CCCN5C[C@H](F)C6)nc4c3F)c12 [Compound 638, 4-(4-(3,8-diazabicyclo-[3.2.1]octan-3-yl)-6-chloro-8-fluoro-2-(((2R,7aS)-2-fluorotetrahydro-1H-pyrrol-izin-7a(5H)-yl)methoxy)-quinazolin-7-yl)-2-amino-7-fluorobenzo[b]thiophene-3-carbonitrile]
> 500	< 500	Nc1nc2c(-c3c(Cl)cc4c(N5CC6CNCC(C5)N6)nc(OC[C@@]56CCCN5C[C@H](F)C6)nc4c3F)ccc(F)c2s1 [Compound 639, 4-(4-(3,7,9-triazabicyclo-[3.3.1]nonan-3-yl)-6-chloro-8-fluoro-2-(((2R,7aS)-2-fluorotetrahydro-1H-pyrrol-izin-7a(5H)-yl)methoxy)-quinazolin-7-yl)-7-fluoro-benzo[d]thiazol-2-amine]
> 500	< 500	CNCCCN1CCCN(c2nc(OCC34CCCN3CCC4)nc3c(F)c(-c4ccc(F)c5sc(N)nc45)c(Cl)cc23)CC1 [Compound 640, 4-(6-chloro-8-fluoro-4-(4-(3-(methylamino)propyl)-1,4-diazepan-1-yl)-2-((tetrahydro-1H-pyrrolizin-7a(5H)-yl)methoxy)quin-azolin-7-yl)-7-fluorobenzo-[d]thiazol-2-amine]
> 500	> 500	Nc1cc(-c2ccc3c(N4CC5CCC(C4)N5)nc(OCC45CCCN4CCC5)nc3c2F)c2ccccc2n1 [Compound 641, 4-(4-(3,8-diazabicyclo-[3.2.1]octan-3-yl)-8-fluoro-2-((tetrahydro-1H-pyrrol-izin-7a(5H)-yl)methoxy)-quinazolin-7-yl)quinolin-2-amine]
